These results are taken from patent publication US4578400A, “Therapeutic composition and method for treatment of cardiovascular diseases” (priority 1982, dated 1986).

One series can be described thus: Acute toxicity. The settings on record: one week observation. From the text: Male ddy mice weighing about 25 g were divided into groups of 10 animals and orally administered once with 3 g/kg of 5--HDA, 5--HDA--Na, 5--HDAE, 5--HDA--DHP or δ-DL, or intraperitoneally injected once with 1 g/kg of said compounds.
The nature of series [1]: Solubility (physicochemical properties, Table 1).
The subject of series [2] is chloroform-induced arrhythmia (ventricular fibrillation). The experiment in a line: Effect on chloroform-induced arrhythmia. The settings on record: for Percent occurrence of ventricular fibrillation / anti-arrhythmic effects (in words): oral; for Percent occurrence of ventricular fibrillation: 15 min before chloroform, control 100; for anti-arrhythmic potency compared with lidocaine (in words): 100 mg/kg oral vs lidocaine 10 mg/kg i.p. The format is in vivo, male ddy mice. The source says:
When they stopped breathing, they were thoracotomized to examine the occurrence of ventricular fribrillation. The results are noted in Table 2 as percent occurrence of ventricular fibrillation.

Series [3] relates to ouabain induced arrhythmia. The experiment in a line: Effect on ouabain induced arrhythmia. The format is in vivo, male hartley guinea pigs. The conditions noted are these: for relative time for extrasystole to occur / relative time for ventricular fibrillation to occur / relative time for cardiac arrest to occur: oral, 100 mg/kg, control = 100; for relative time for ventricular fibrillation to occur: *P < 0.05; for relative time for cardiac arrest to occur: *P < 0.05 where starred; for antiarrhythmic effects (in words): ouabain induced arrhythmia. From the text: Effect on ouabain induced arrhythmia
The procedure described in Matsubara et al. (Folia Pharmacologica Japonica, 72, 557-571, 1976) was followed.
Male hartley guinea pigs were divided into groups of 8 animals and anesthetized with intraperitoneal urethane. Three groups were orally administered 5--HDA--Na, 5--HDAE and 5--HDA--DHP dissolved in distilled water. Another group was intravenously injected with 5--HDA--Na dissolved in physiological saline. One group was orally administered δ-DL emulsified in 5% aqueous arabic gum solution. One group was injected intravenously with lidocaine dissolved in physiological saline. For the respective routes of administration, control groups were administered the solvents used in administration of the test compounds. Thirty minutes after the oral administration and one minute after the intravenous injection, ouabain was infused into the jugular vein at a rate of 5 μg/kg/min until extrasystole, ventricular fibrillation and cardiac arrest appeared on a standard limb lead II of ECG. The results are shown in Table 3, with the time necessary for the respective symptoms to occur in the control groups taken as 100.

The nature of series [4]: Lowering serum lipid levels in Triton-induced hyperlipidemic rats. Format: in vivo, male Wistar rats. The conditions noted are these: for inhibition rate, total cholesterol (serum) / inhibition rate, triglyceride (serum): 100 mg/kg oral, four times, against control, 10 hours after Triton WR-1339, *P < 0.05; for antilipidemic effects compared with Clofibrate (in words): 100 mg/kg, oral. As to the method: After 10 hours, blood samples were drawn to determine the serum levels of total cholesterol and triglyceride.

The target of series [5] is T1, 3-hydroxy-3-methylglutaryl coenzyme A (HMG-Co A) reductase (Rattus norvegicus, UniProt P51639).
T1 sequence (P51639 1-887): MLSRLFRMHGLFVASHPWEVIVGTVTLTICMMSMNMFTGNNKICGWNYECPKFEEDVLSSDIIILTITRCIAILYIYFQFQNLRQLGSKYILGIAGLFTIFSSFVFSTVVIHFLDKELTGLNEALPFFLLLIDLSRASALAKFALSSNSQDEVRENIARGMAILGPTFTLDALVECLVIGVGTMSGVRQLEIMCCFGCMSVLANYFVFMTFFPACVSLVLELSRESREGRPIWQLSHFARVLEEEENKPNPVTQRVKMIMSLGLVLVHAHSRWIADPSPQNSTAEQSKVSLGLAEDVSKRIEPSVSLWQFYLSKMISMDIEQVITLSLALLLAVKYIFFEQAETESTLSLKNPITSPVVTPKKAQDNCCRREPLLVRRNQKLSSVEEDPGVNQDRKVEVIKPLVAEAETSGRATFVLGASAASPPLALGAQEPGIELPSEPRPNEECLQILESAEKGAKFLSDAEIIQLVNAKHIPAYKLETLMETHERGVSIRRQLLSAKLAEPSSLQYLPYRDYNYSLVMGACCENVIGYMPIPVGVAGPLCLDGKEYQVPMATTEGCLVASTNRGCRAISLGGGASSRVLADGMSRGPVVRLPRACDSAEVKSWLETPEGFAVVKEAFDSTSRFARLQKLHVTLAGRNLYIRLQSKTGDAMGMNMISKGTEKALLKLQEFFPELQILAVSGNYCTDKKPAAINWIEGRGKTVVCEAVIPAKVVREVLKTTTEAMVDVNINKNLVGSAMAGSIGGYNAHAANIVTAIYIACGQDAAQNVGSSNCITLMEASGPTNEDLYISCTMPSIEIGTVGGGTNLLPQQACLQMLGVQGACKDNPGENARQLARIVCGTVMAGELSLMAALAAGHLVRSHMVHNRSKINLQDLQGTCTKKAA
The series is described as follows: Inhibition of HMG-CoA reductase activity. The settings on record: rat liver microsome; read-out: IC30 (amount necessary for inhibiting the enzymatic activity by 30%). Format: biochemical, rat (liver microsome). The source says:
Inhibition of the activity of 3-hydroxy-3-methylglutaryl coenzyme A (HMG-Co A) reductase
A general note: Liver microsomes are a subcellular fraction often used to study metabolism.

Series [6] can be described thus: Lowering serum cholesterol levels in hyperlipidemic rabbits. The settings on record: 100 mg/kg oral daily for 7 days. The format is in vivo, male Japanese white rabbits. From the text:
Male Japanese white rabbits weighing about 2.5 kg were fed on a solid diet containing 1% cholesterol (RC-4, Nippon Crea Co., Ltd.) for 10 weeks until hypercholesterolemia fully developed. The rabbits were then divided into groups of 5 animals, and 5--HDA--Na or δ-DL was orally admininistered daily for 7 days, either as a solution or as an emulsion in 5% aqueous arabic gum. Three hours after the last administration, blood was drawn to determine the serum level of cholesterol.

Regarding `CCCCCC(O)CCCC(=O)O` (stereo not drawn) [5-HDA, 5-hydroxy-decanoic acid], in “Acute toxicity” (1 g/kg intraperitoneal once), the “acute toxicity: abnormality” value was “no abnormality occurred” and the “acute toxicity: death” value is listed as “no animal died”. Further, in the series “Acute toxicity” (3 g/kg oral once), the “acute toxicity: abnormality” value was “no abnormality occurred” and the “acute toxicity: death” value is given as “no animal died”. Further, in series [1], the solubility in acetone entry was “easily”, the solubility in benzene result was “easily”, the solubility in chloroform result is “easily” and the solubility in methanol result was “easily”. In addition, the solubility in water result in series [1] is recorded as “sparingly”. Further, in series [2] (50 mg/kg), the “Percent occurrence of ventricular fibrillation” value (“Percent occurrence” for short) is 60. In series [2], the “anti-arrhythmic potency compared with lidocaine (in words)” value is recorded as “more potent than lidocaine”. In series [2] (100 mg/kg), the “anti-arrhythmic effects (in words)” value is on record as “significant anti-arrhythmic effects”. Moreover, the “Percent occurrence” value in series [2] (100 mg/kg, *P < 0.05) amounted to 30.

`CCCCCC(O)CCCC(=O)OCC(O)CO` (stereo not drawn) [5-HDA-DHP, 2',3'-dihydroxy-propyl-5-hydroxydecanoate]: in series [3], the “relative time for extrasystole to occur” value turned out to be 193, the “relative time for ventricular fibrillation to occur” value came out at 139, the “relative time for cardiac arrest to occur” value was found to be 122 and the “antiarrhythmic effects (in words)” value is listed as “significant antiarrhythmic effects”. Besides, in the series “Acute toxicity” (1 g/kg intraperitoneal once), the “acute toxicity: abnormality” value is “no abnormality occurred” and the “acute toxicity: death” value is listed as “no animal died”. Moreover, in the series “Acute toxicity” (3 g/kg oral once), the “acute toxicity: abnormality” value is on record as “no abnormality occurred” and the “acute toxicity: death” value is “no animal died”. Further, in series [1], the solubility in acetone entry is given as “easily”, the solubility in chloroform result is listed as “easily”, the solubility in methanol result is listed as “easily” and the solubility in water result is reported as “soluble”. Moreover, the “anti-arrhythmic potency compared with lidocaine (in words)” value in series [2] is “more potent than lidocaine”. For the same compound, the “anti-arrhythmic effects (in words)” value in series [2] (100 mg/kg) is reported as “significant anti-arrhythmic effects”. Also, in series [2] (100 mg/kg, *P < 0.05), the “Percent occurrence” value is listed as 20. Further, in series [4], the “inhibition rate, total cholesterol (serum)” value is 19%; the “inhibition rate, triglyceride (serum)” value is recorded as 18%; the “antilipidemic effects compared with Clofibrate (in words)” value is given as “equipotent to or stronger than the effect of the known anti-lipidemic agent, Clofibrate”.

With `CCCCCC(O)CCCC(=O)OCC` (stereo not drawn) [5-HDAE, Ethyl-5-hydroxy-decanoate], in series [3], the “relative time for extrasystole to occur” value was determined as 151, the “relative time for ventricular fibrillation to occur” value was 146, the “relative time for cardiac arrest to occur” value was found to be 132 and the “antiarrhythmic effects (in words)” value is listed as “significant antiarrhythmic effects”. Also, in the series “Acute toxicity” (1 g/kg intraperitoneal once), the “acute toxicity: abnormality” value was “no abnormality occurred” and the “acute toxicity: death” value is on record as “no animal died”. In the series “Acute toxicity” (3 g/kg oral once), the “acute toxicity: abnormality” value was “no abnormality occurred” and the “acute toxicity: death” value is listed as “no animal died”. Besides, in series [1], the solubility in acetone entry is given as “easily”, the solubility in benzene entry is “easily”, the solubility in chloroform result is recorded as “easily” and the solubility in methanol entry was “easily”. Also, the solubility in water result in series [1] was “sparingly”. In series [2], the “anti-arrhythmic potency compared with lidocaine (in words)” value is given as “more potent than lidocaine”. Further, in series [2] (100 mg/kg), the “anti-arrhythmic effects (in words)” value was “significant anti-arrhythmic effects”. For the same compound, the “Percent occurrence” value in series [2] (100 mg/kg, *P < 0.05) amounted to 30. Also, in series [4], the “inhibition rate, total cholesterol (serum)” value was 19%; the “inhibition rate, triglyceride (serum)” value is reported as 17%; the “antilipidemic effects compared with Clofibrate (in words)” value is on record as “equipotent to or stronger than the effect of the known anti-lipidemic agent, Clofibrate”.

Consider `CCOC(=O)C(C)(C)Oc1ccc(Cl)cc1` [Clofibrate, reference compound], for which, in series [4], the “inhibition rate, total cholesterol (serum)” value turned out to be 14% and the “inhibition rate, triglyceride (serum)” value came out at 16%.

For the compound `CC[C@H](C)C(=O)O[C@H]1CCC=C2C=C[C@H](C)[C@H](CC[C@@H]3C[C@@H](O)CC(=O)O3)[C@H]21` [Compactin, reference compound], in series [5], the IC30 was 30 µM.

For the compound `CCCCCC1CCCC(=O)O1` (stereo not drawn) [δ-DL, δ-decalactone], in series [3], the “relative time for extrasystole to occur” value is recorded as 157, the “relative time for ventricular fibrillation to occur” value was found to be 137, the “relative time for cardiac arrest to occur” value was 140 and the “antiarrhythmic effects (in words)” value was “significant antiarrhythmic effects”. Moreover, in the series “Acute toxicity” (1 g/kg intraperitoneal once), the “acute toxicity: abnormality” value is “no abnormality occurred” and the “acute toxicity: death” value is “no animal died”. For the same compound, in the series “Acute toxicity” (3 g/kg oral once), the “acute toxicity: abnormality” value is on record as “no abnormality occurred” and the “acute toxicity: death” value is “no animal died”. In addition, in series [6], the “serum level of total cholesterol (in words)” value is on record as “lowered the serum level of total cholesterol”. For the same compound, in series [6] (3 h after last administration, control 1,394, *P < 0.05), the Total serum cholesterol was 1,141 mg/dl. In series [1], the solubility in acetone result is on record as “easily”, the solubility in benzene result was “easily”, the solubility in chloroform result was “easily” and the solubility in methanol entry was “easily”. For the same compound, the solubility in water result in series [1] is “insoluble”. For the same compound, the solubility in hexane result in series [1] (hexane) was “easily”. In addition, the “anti-arrhythmic potency compared with lidocaine (in words)” value in series [2] is “more potent than lidocaine”. Besides, the “anti-arrhythmic effects (in words)” value in series [2] (100 mg/kg) is on record as “significant anti-arrhythmic effects”. Further, the “Percent occurrence” value in series [2] (100 mg/kg, *P < 0.05) is given as 30. In addition, in series [4], the “inhibition rate, total cholesterol (serum)” value is 23%; the “inhibition rate, triglyceride (serum)” value came out at 11%; the “antilipidemic effects compared with Clofibrate (in words)” value is “equipotent to or stronger than the effect of the known anti-lipidemic agent, Clofibrate”.

The term IC30 denotes the point of the concentration-response curve where the effect stands at 30%.
